Measurements from US10167262B2, “Herbicidal substituted 3-arylpyrazoles” (FMC CORPORATION, priority 2014, dated 2019).

Experiments:
Assay type in all cases: in vivo
[1] = system: windgrass (Apera spica-venti); assay: Test C postemergence greenhouse test, plant response rating 0-100; conditions: for Plant response rating, Windgrass: 250 g ai/ha, scale 0 to 100
Procedure, shortened: (§1)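 Scores run from 0, meaning no effect, to 100, meaning complete control, and come from visual comparison with untreated controls. Treatment was a postemergence application to plants 2–18 cm tall. Assessment followed 13 to 15 days of greenhouse growth.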

[2] = system: winter barley (Hordeum vulgare); assay: as above; conditions: for Plant response rating, Barley: 250 g ai/ha, scale 0 to 100
Procedure, shortened: as §1

[3] = system: green foxtail (Setaria viridis); assay: as above; conditions: for Plant response rating, Foxtail, Green: 250 g ai/ha, scale 0 to 100
Procedure, shortened: as §1

[4] = system: deadnettle (henbit deadnettle, Lamium amplexicaule); assay: as above; conditions: for Plant response rating, Deadnettle: 250 g ai/ha, scale 0 to 100
Procedure, shortened: as §1

[5] = system: downy bromegrass (Bromus tectorum); assay: as above; conditions: for Plant response rating, Bromegrass, Downy: 250 g ai/ha, scale 0 to 100
Procedure, shortened: as §1

[6] = system: goosegrass (Eleusine indica); assay: as above; conditions: for Plant response rating, Goosegrass: 250 g ai/ha, scale 0 to 100
Procedure, shortened: as §1

[7] = system: canarygrass (Phalaris minor); assay: as above; conditions: for Plant response rating, Canarygrass: 250 g ai/ha, scale 0 to 100
Procedure, shortened: as §1

[8] = system: woolly cupgrass (Eriochloa villosa); assay: as above; conditions: for Plant response rating, Cupgrass, Woolly: 250 g ai/ha, scale 0 to 100
Procedure, shortened: as §1

[9] = system: barnyardgrass (Echinochloa crus-galli); assay: Test B flooded paddy test, plant response rating 0-100; conditions: Flood, 250 g ai/ha; scale 0 to 100 (0 no effect, 100 complete control); 13 to 15 days
Procedure, shortened: (§2)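 In-water treatment: compound dosed into 3 cm flood over soil, water level unchanged throughout. Controls run alongside; visual assessment at day 13–15.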

[10] = system: ducksalad (Heteranthera limosa); assay: as above; conditions: Flood, 250 g ai/ha; scale 0 to 100 (0 no effect, 100 complete control); 13 to 15 days
Procedure, shortened: as §2

rice (Oryza sativa) = assay: as above; conditions: Flood, 250 g ai/ha; scale 0 to 100 (0 no effect, 100 complete control); 13 to 15 days
Procedure, shortened: as §2

[11] = system: sedge, umbrella (small-flower umbrella sedge, Cyperus difformis); assay: as above; conditions: Flood, 250 g ai/ha; scale 0 to 100 (0 no effect, 100 complete control); 13 to 15 days
Procedure, shortened: as §2

## CCn1cc(C(=O)c2ccccc2)c(-c2cc(Br)cc(Br)c2)n1 [Compound 38]
[1]; 62 g ai/ha
  Plant response rating (0 to 100), Windgrass: 0
[1]; 125 g ai/ha
  Plant response rating (0 to 100), Windgrass: 0
[1]
  Plant response rating, Windgrass: 0
[2]; 31 g ai/ha
  Plant response rating (0 to 100), Barley: 0
[2]; 62 g ai/ha
  Plant response rating (0 to 100), Barley: 0
[2]; 125 g ai/ha
  Plant response rating (0 to 100), Barley: 0
[2]
  Plant response rating, Barley: 0
[3]; 31 g ai/ha
  Plant response rating (0 to 100), Foxtail, Green: 0
[3]; 62 g ai/ha
  Plant response rating (0 to 100), Foxtail, Green: 0
[3]; 125 g ai/ha
  Plant response rating (0 to 100), Foxtail, Green: 0
[3]
  Plant response rating, Foxtail, Green: 5
[4]; 31 g ai/ha
  Plant response rating (0 to 100), Deadnettle: 0
[4]; 62 g ai/ha
  Plant response rating (0 to 100), Deadnettle: 0
[4]; 125 g ai/ha
  Plant response rating (0 to 100), Deadnettle: 0
[4]
  Plant response rating, Deadnettle: 5
[5]; 31 g ai/ha
  Plant response rating (0 to 100), Bromegrass, Downy: 0
[5]; 62 g ai/ha
  Plant response rating (0 to 100), Bromegrass, Downy: 0
[5]; 125 g ai/ha
  Plant response rating (0 to 100), Bromegrass, Downy: 0
[5]
  Plant response rating, Bromegrass, Downy: 0
[6]; 31 g ai/ha
  Plant response rating (0 to 100), Goosegrass: 0
[6]; 62 g ai/ha
  Plant response rating (0 to 100), Goosegrass: 0
[6]; 125 g ai/ha
  Plant response rating (0 to 100), Goosegrass: 0
[6]
  Plant response rating, Goosegrass: 0
[7]; 31 g ai/ha
  Plant response rating (0 to 100), Canarygrass: 0
[7]; 62 g ai/ha
  Plant response rating (0 to 100), Canarygrass: 0
[7]; 125 g ai/ha
  Plant response rating (0 to 100), Canarygrass: 0
[7]
  Plant response rating, Canarygrass: 5
[8]; 31 g ai/ha
  Plant response rating (0 to 100), Cupgrass, Woolly: 0
[8]; 62 g ai/ha
  Plant response rating (0 to 100), Cupgrass, Woolly: 0
[8]; 125 g ai/ha
  Plant response rating (0 to 100), Cupgrass, Woolly: 0
[8]
  Plant response rating, Cupgrass, Woolly: 0
[9]
  Plant response rating, Barnyardgrass: 0
[10]
  Plant response rating, Ducksalad: 0
Rice (Oryza sativa)
  Plant response rating, Rice: 0
[11]
  Plant response rating, Sedge, Umbrella: 0

## Fc1ccccc1NN=C(c1ccccc1)c1c[nH]nc1-c1cc(Cl)cc(Cl)c1 [Compound 57]
[1]; 62 g ai/ha
  Plant response rating (0 to 100), Windgrass: 0
[1]; 125 g ai/ha
  Plant response rating (0 to 100), Windgrass: 0
[1]
  Plant response rating, Windgrass: 0
[2]; 31 g ai/ha
  Plant response rating (0 to 100), Barley: 0
[2]; 62 g ai/ha
  Plant response rating (0 to 100), Barley: 0
[2]; 125 g ai/ha
  Plant response rating (0 to 100), Barley: 0
[2]
  Plant response rating, Barley: 0
[3]; 31 g ai/ha
  Plant response rating (0 to 100), Foxtail, Green: 0
[3]; 62 g ai/ha
  Plant response rating (0 to 100), Foxtail, Green: 0
[3]; 125 g ai/ha
  Plant response rating (0 to 100), Foxtail, Green: 0
[3]
  Plant response rating, Foxtail, Green: 0
[4]; 31 g ai/ha
  Plant response rating (0 to 100), Deadnettle: 0
[4]; 62 g ai/ha
  Plant response rating (0 to 100), Deadnettle: 0
[4]; 125 g ai/ha
  Plant response rating (0 to 100), Deadnettle: 0
[4]
  Plant response rating, Deadnettle: 0
[5]; 31 g ai/ha
  Plant response rating (0 to 100), Bromegrass, Downy: 0
[5]; 62 g ai/ha
  Plant response rating (0 to 100), Bromegrass, Downy: 0
[5]; 125 g ai/ha
  Plant response rating (0 to 100), Bromegrass, Downy: 0
[5]
  Plant response rating, Bromegrass, Downy: 0
[6]; 31 g ai/ha
  Plant response rating (0 to 100), Goosegrass: 0
[6]; 62 g ai/ha
  Plant response rating (0 to 100), Goosegrass: 0
[6]; 125 g ai/ha
  Plant response rating (0 to 100), Goosegrass: 0
[6]
  Plant response rating, Goosegrass: 0
[7]; 31 g ai/ha
  Plant response rating (0 to 100), Canarygrass: 0
[7]; 62 g ai/ha
  Plant response rating (0 to 100), Canarygrass: 0
[7]; 125 g ai/ha
  Plant response rating (0 to 100), Canarygrass: 0
[7]
  Plant response rating, Canarygrass: 0
[8]; 31 g ai/ha
  Plant response rating (0 to 100), Cupgrass, Woolly: 0
[8]; 62 g ai/ha
  Plant response rating (0 to 100), Cupgrass, Woolly: 0
[8]; 125 g ai/ha
  Plant response rating (0 to 100), Cupgrass, Woolly: 5
[8]
  Plant response rating, Cupgrass, Woolly: 5
[9]
  Plant response rating, Barnyardgrass: 0
[10]
  Plant response rating, Ducksalad: 0
Rice (Oryza sativa)
  Plant response rating, Rice: 0
[11]
  Plant response rating, Sedge, Umbrella: 75

## CC(C)n1cc(C(=O)c2ccccc2)c(-c2cc(Cl)cc(Cl)c2)n1 [Compound 44]
[1]; 62 g ai/ha
  Plant response rating (0 to 100), Windgrass: 0
[1]; 125 g ai/ha
  Plant response rating (0 to 100), Windgrass: 0
[1]
  Plant response rating, Windgrass: 0
[2]; 31 g ai/ha
  Plant response rating (0 to 100), Barley: 0
[2]; 62 g ai/ha
  Plant response rating (0 to 100), Barley: 0
[2]; 125 g ai/ha
  Plant response rating (0 to 100), Barley: 0
[2]
  Plant response rating, Barley: 0
[3]; 31 g ai/ha
  Plant response rating (0 to 100), Foxtail, Green: 0
[3]; 62 g ai/ha
  Plant response rating (0 to 100), Foxtail, Green: 0
[3]; 125 g ai/ha
  Plant response rating (0 to 100), Foxtail, Green: 0
[3]
  Plant response rating, Foxtail, Green: 0
[4]; 31 g ai/ha
  Plant response rating (0 to 100), Deadnettle: 0
[4]; 62 g ai/ha
  Plant response rating (0 to 100), Deadnettle: 0
[4]; 125 g ai/ha
  Plant response rating (0 to 100), Deadnettle: 0
[4]
  Plant response rating, Deadnettle: 0
[5]; 31 g ai/ha
  Plant response rating (0 to 100), Bromegrass, Downy: 0
[5]; 62 g ai/ha
  Plant response rating (0 to 100), Bromegrass, Downy: 0
[5]; 125 g ai/ha
  Plant response rating (0 to 100), Bromegrass, Downy: 0
[5]
  Plant response rating, Bromegrass, Downy: 0
[6]; 31 g ai/ha
  Plant response rating (0 to 100), Goosegrass: 0
[6]; 62 g ai/ha
  Plant response rating (0 to 100), Goosegrass: 0
[6]; 125 g ai/ha
  Plant response rating (0 to 100), Goosegrass: 0
[6]
  Plant response rating, Goosegrass: 0
[7]; 31 g ai/ha
  Plant response rating (0 to 100), Canarygrass: 0
[7]; 62 g ai/ha
  Plant response rating (0 to 100), Canarygrass: 0
[7]; 125 g ai/ha
  Plant response rating (0 to 100), Canarygrass: 0
[7]
  Plant response rating, Canarygrass: 0
[8]; 31 g ai/ha
  Plant response rating (0 to 100), Cupgrass, Woolly: 0
[8]; 62 g ai/ha
  Plant response rating (0 to 100), Cupgrass, Woolly: 5
[8]; 125 g ai/ha
  Plant response rating (0 to 100), Cupgrass, Woolly: 5
[8]
  Plant response rating, Cupgrass, Woolly: 5
[9]
  Plant response rating, Barnyardgrass: 0
[10]
  Plant response rating, Ducksalad: 0
Rice (Oryza sativa)
  Plant response rating, Rice: 0
[11]
  Plant response rating, Sedge, Umbrella: 0
